Assay results from patent US4368325A, “Processes for preparing 3-cephem compounds” (Fujisawa Pharmaceutical Co., Ltd., priority 1980, dated 1983).
In brackets after ≈: the same amount, converted by molar mass.

Legend:
Experiment in all cases: In vitro antibacterial activity, two-fold agar-plate dilution method
Format in all cases: cell-based
[1] = system: Escherichia coli. NIHJ JC-2; settings: NIHJJC2, HI-agar, 37° C., 20 hours, 100-fold dilution of overnight culture, read-out: minimal inhibitory concentration (MIC)
Description: (§1) In vitro antibacterial activity was determined by the two-fold agar-plate dilution method as described below. One loopful of the 100-fold dilution of an overnight culture of each test strain in Trypticasesoy broth was streaked on heart infusion agar (HI-agar) containing graded concentrations of the test compound and incubated at 37° C. for 20 hours. The minimal inhibitory concentration (MIC) was expressed in μg/ml.

Klebsiella pneumoniae 20 = settings: HI-agar, 37° C., 20 hours, 100-fold dilution of overnight culture, read-out: minimal inhibitory concentration (MIC)
Description: as §1

Proteus mirabilis 18 = settings: HI-agar, 37° C., 20 hours, 100-fold dilution of overnight culture, read-out: minimal inhibitory concentration (MIC)
Description: as §1

[2] = system: Proteus vulgaris IAM-1025; settings: IAM1025, HI-agar, 37° C., 20 hours, 100-fold dilution of overnight culture, read-out: minimal inhibitory concentration (MIC)
Description: as §1

[3] = system: Pseudomonus aeruginosa NCTC-10490; settings: HI-agar, 37° C., 20 hours, 100-fold dilution of overnight culture, read-out: minimal inhibitory concentration (MIC)
Description: as §1

Serratia marcescens 35 = settings: HI-agar, 37° C., 20 hours, 100-fold dilution of overnight culture, read-out: minimal inhibitory concentration (MIC)
Description: as §1

[4] = system: Staphylococcus aureus 209P JC-1; settings: HI-agar, 37° C., 20 hours, 100-fold dilution of overnight culture, read-out: minimal inhibitory concentration (MIC)
Description: as §1

MIC [1]: ≤ 0.025 µg/mL
MIC (Klebsiella pneumoniae 20): ≤ 0.025 µg/mL
MIC (Proteus mirabilis 18): ≤ 0.025 µg/mL
MIC [2]: ≤ 0.025 µg/mL
MIC [3]: 0.39 µg/mL (≈ 1.02 µM)
MIC (Serratia marcescens 35): 1.56 µg/mL (≈ 4.07 µM)
MIC [4]: 6.25 µg/mL (≈ 16.3 µM)
Structure (SMILES): CO/N=C(\C(=O)NC1C(=O)N2C(C(=O)O)=CCSC12)c1csc(N)n1 (stereo not drawn) [7-[2-(2-aminothiazol-4-yl)-2-methoxyiminoacetamido]-3-cephem-4-carboxylic acid (syn isomer)]
